From patent publication US7951232B2, “Surface coating compositions and methods” (Elevance Renewable Sciences, Inc., priority 2006, dated 2011)
Read-outs that look alike come from different tables or passages of the source.

Legend:
Format in all cases: cell-based
[1] = system: Aspergillus flavus, ATCC 9170; assay: Preservative effectiveness, USP <51>
Protocol: (§1) The effectiveness of 9-decenoic acid on Aspergillus and Penecillium which occasionally result in in-can spoilage of paint was determined using the protocol on preservative effectiveness found in the United States Pharmacopeia (USP), 25th Edition, 2002, USP <51>.
(§2) Stock cultures of the fungi Aspergillus flavus, ATCC 9170 and Penecillium verrucosum, ATCC 18381 were cultured onto Sabouraud Dextrose Agar (SDA) and incubated at 25-30° C. for at least 1 week. The spores were washed form the agar surface with sterile saline, filtered through sterile glass wool, enumerated and stored under refrigeration for no longer than thirty days. On the day of the test, the suspension was diluted to approximately 10^8 CFU/ml.
(§3) The 9-decenoic acid was diluted in the same manner as previously described to achieve, 0.25, 0.125, 0.0625, 0.03, 0.015, 0.0078 and 0.0039% and dispensed in 20 ml aliquots in sterile test tubes. For each concentration tested, a 0.1 ml aliquot of each inoculum was added to a final concentration of 10^5 to 10^6 CFU/ml. The tubes were incubated at room temperature and sampled on days 0, 1, 2, 4, 7, 14, 21 and 28.
(§4) At each sample point, 1.0 ml aliquots were withdrawn, serially diluted and plated in triplicate on SDA. The plates were incubated at 25-30° C. for 3-7 days. The colonies were counted and the average CFU/ml was calculated. Controls for purity, viability and sterility were performed as described previously.
(§5) According to the US Pharmacopoeia, a test compound is an effective preservative if the concentrations of viable fungi remain at or below the initial concentrations during the first fourteen days and after 28 days. According to this definition, 9-decenoic acid is an effective preservative against Aspergillus flavus and Penecillium verrucosum at concentrations as low at 0.078%. […] For A. flavus, 9-decenoic acid was fungicidal at 0.015% after 21 days and at day 0 at 0.03%.

[2] = system: Penecillium verrucosum, ATCC 18381; assay: Preservative effectiveness, USP <51>
Protocol: as §1, §2, §3, §4, §5

[3] = system: Pseudomonas aeruginosa ATCC 15442; assay: MIC and MBC determination in Mueller-Hinton Broth; details: no-growth tubes subcultured on TSA, 37±2° C., 20-24 hours
Protocol: Efficacy of 9-decenoic acid and the methyl ester of 9-decenoic acid against Pseudomonas aeruginosa ATCC 15442, Escherichia coli 0157:H7 ATCC 43895 and Candida albicans ATCC 10231 was measured through the determination of the minimum inhibitory concentration (MIC) and minimum bacteriocidal concentration (MBC) using the procedures in the Federal Register, June 1994 and the present NCCLS M11-A4 protocol.
Stock cultures of each organism were transferred onto Mueller-Hinton Agar (MHA) plates and incubated for 24±2 hours at 37±2° C. On the day of the test, the top of at least three to five well-isolated colonies were transferred via wire loop to a tube containing 4 to 5 ml of Trypticase Soy Broth (TSB). The TSB culture was incubated for 2 to 6 hours and turbidity was adjusted with sterile saline to achieve the turbidity of the 0.5 McFarland Standard.
The concentrated 9-decenoic acid was diluted 1:40 in Mueller-Hinton Broth (MHB) to yield a 2.5% stock solution. The test solution of the methyl ester of 9-decenoic acid was formulated in the same manner. For each organism, 12 dilutions of the 9-decenoic acid and the methyl ester of 9-decenoic acid in MHB were prepared ranging from 0.2500 to 0.0005%. A 2-ml aliquot of appropriately diluted 9-decenoic acid or the methyl ester of 9-decenoic acid solution was placed in each tube. Each tube was inoculated with 0.05 ml of a 1:10 dilution of one challenge organism. Tubes were incubated at 37±2° C. for 20-24 hours and observed for growth or no growth. […] Controls were run for sterility, viability and organism confirmation. It was determined that all cultures were viable and pure.
The MBC was defined as the concentration of 9-decenoic acid or the methyl ester of 9-decenoic acid that completely eradicated viable organisms from the test system.

C=CCCCCCCCC(=O)O [9-decenoic acid]
1 days: time after which fungicidal ([2]; at 0.03%)
0.8 log: Log reduction of organisms after exposure ([1]; 0.0078%, exposure 21 days) | Log reduction of organisms after exposure ([1]; 0.0078%, exposure 28 days) | Log reduction of organisms after exposure ([2]; 0.0078%, exposure 2 days) | Log reduction of organisms after exposure ([2]; 0.0078%, exposure 4 days) | Log reduction of organisms after exposure ([2]; 0.0078%, exposure 7 days) | Log reduction of organisms after exposure ([2]; 0.0078%, exposure 14 days)
5.1 log: Log reduction of organisms after exposure ([1]; 0.015%, exposure 21 days) | Log reduction of organisms after exposure ([1]; 0.03%, exposure 0 days) | Log reduction of organisms after exposure ([1]; 0.03%, exposure 1 day) | Log reduction of organisms after exposure ([1]; 0.03%, exposure 2 days) | Log reduction of organisms after exposure ([1]; 0.03%, exposure 4 days) | Log reduction of organisms after exposure ([1]; 0.03%, exposure 7 days) | Log reduction of organisms after exposure ([1]; 0.03%, exposure 14 days) | Log reduction of organisms after exposure ([1]; 0.03%, exposure 21 days) | Log reduction of organisms after exposure ([1]; 0.03%, exposure 28 days) | Log reduction of organisms after exposure ([1]; 0.0625%, exposure 0 days) | Log reduction of organisms after exposure ([1]; 0.0625%, exposure 1 day) | Log reduction of organisms after exposure ([1]; 0.0625%, exposure 2 days) | Log reduction of organisms after exposure ([1]; 0.0625%, exposure 4 days) | Log reduction of organisms after exposure ([1]; 0.0625%, exposure 7 days) | Log reduction of organisms after exposure ([1]; 0.0625%, exposure 14 days) | Log reduction of organisms after exposure ([1]; 0.0625%, exposure 21 days) | Log reduction of organisms after exposure ([1]; 0.0625%, exposure 28 days) | Log reduction of organisms after exposure ([2]; 0.015%, exposure 2 days) | Log reduction of organisms after exposure ([2]; 0.015%, exposure 4 days) | Log reduction of organisms after exposure ([2]; 0.015%, exposure 7 days) | Log reduction of organisms after exposure ([2]; 0.015%, exposure 14 days) | Log reduction of organisms after exposure ([2]; 0.015%, exposure 21 days) | Log reduction of organisms after exposure ([2]; 0.015%, exposure 28 days) | Log reduction of organisms after exposure ([2]; 0.03%, exposure 1 day) | Log reduction of organisms after exposure ([2]; 0.03%, exposure 2 days) | Log reduction of organisms after exposure ([2]; 0.03%, exposure 4 days) | Log reduction of organisms after exposure ([2]; 0.03%, exposure 7 days) | Log reduction of organisms after exposure ([2]; 0.03%, exposure 14 days) | Log reduction of organisms after exposure ([2]; 0.03%, exposure 21 days) | Log reduction of organisms after exposure ([2]; 0.03%, exposure 28 days) | Log reduction of organisms after exposure ([2]; 0.0625%, exposure 1 day) | Log reduction of organisms after exposure ([2]; 0.0625%, exposure 2 days) | Log reduction of organisms after exposure ([2]; 0.0625%, exposure 4 days) | Log reduction of organisms after exposure ([2]; 0.0625%, exposure 7 days) | Log reduction of organisms after exposure ([2]; 0.0625%, exposure 14 days) | Log reduction of organisms after exposure ([2]; 0.0625%, exposure 21 days) | Log reduction of organisms after exposure ([2]; 0.0625%, exposure 28 days)
1.9 log: Log reduction of organisms after exposure ([2]; 0.0078%, exposure 28 days)
3.0 log: Log reduction of organisms after exposure ([2]; 0.015%, exposure 1 day)
0.3 log: Log reduction of organisms after exposure ([1]; 0.0078%, exposure 1 day)
4.3 log: Log reduction of organisms after exposure ([2]; 0.0625%, exposure 0 days)
21 days: time after which fungicidal ([1]; at 0.015%)
3.9 log: Log reduction of organisms after exposure ([1]; 0.015%, exposure 4 days) | Log reduction of organisms after exposure ([1]; 0.015%, exposure 7 days)
0.1250%: MBC [3]
0.4 log: Log reduction of organisms after exposure ([1]; 0.0078%, exposure 4 days) | Log reduction of organisms after exposure ([1]; 0.0078%, exposure 7 days) | Log reduction of organisms after exposure ([1]; 0.0078%, exposure 14 days)
1.8 log: Log reduction of organisms after exposure ([2]; 0.0078%, exposure 21 days)
1.2 log: Log reduction of organisms after exposure ([1]; 0.015%, exposure 0 days)
0.1 log: Log reduction of organisms after exposure ([2]; 0.0078%, exposure 1 day) | Log reduction of organisms after exposure ([2]; 0.015%, exposure 0 days)
2.9 log: Log reduction of organisms after exposure ([1]; 0.015%, exposure 1 day)
3.4 log: Log reduction of organisms after exposure ([2]; 0.03%, exposure 0 days)
0 log: Log reduction of organisms after exposure ([2]; 0.0078%, exposure 0 days)
0.2 log: Log reduction of organisms after exposure ([1]; 0.0078%, exposure 0 days) | Log reduction of organisms after exposure ([1]; 0.0078%, exposure 2 days)
0 days: time after which fungicidal ([1]; at 0.03%)
3.1 log: Log reduction of organisms after exposure ([1]; 0.015%, exposure 2 days)
4.8 log: Log reduction of organisms after exposure ([1]; 0.015%, exposure 14 days) | Log reduction of organisms after exposure ([1]; 0.015%, exposure 28 days)
2 days: time after which fungicidal [2]
